This passage reports IC50 results from ChEMBL document CHEMBL1130105 (J Med Chem, 1997).

The first test concerns the target Gastrin/cholecystokinin type B receptor (Cavia porcellus). The test can be described thus: Inhibition of ligand binding to Cholecystokinin type B receptor from guinea pig cortical membrane.
In general, IC50 refers to the midpoint of a concentration-inhibition curve. Turning to `CCN(CC)C(=O)CN1C(=O)C(NC(=O)Nc2cccc(C)c2)N=C(c2ccccn2)c2ccccc21` (configuration not stated), the concentration for half-maximal inhibition (IC50) is 0.00056 µM.
In turn, `Cc1cccc(NC(=O)NC2N=C(c3ccccn3)c3ccccc3N(C)C2=O)c1` (configuration not stated) yielded a concentration for half-maximal inhibition (IC50) of 0.066 µM.

The target of the next test is T1, Cholecystokinin receptor type A (Rattus norvegicus, UniProt P30551).
T1 sequence (P30551 whole entry): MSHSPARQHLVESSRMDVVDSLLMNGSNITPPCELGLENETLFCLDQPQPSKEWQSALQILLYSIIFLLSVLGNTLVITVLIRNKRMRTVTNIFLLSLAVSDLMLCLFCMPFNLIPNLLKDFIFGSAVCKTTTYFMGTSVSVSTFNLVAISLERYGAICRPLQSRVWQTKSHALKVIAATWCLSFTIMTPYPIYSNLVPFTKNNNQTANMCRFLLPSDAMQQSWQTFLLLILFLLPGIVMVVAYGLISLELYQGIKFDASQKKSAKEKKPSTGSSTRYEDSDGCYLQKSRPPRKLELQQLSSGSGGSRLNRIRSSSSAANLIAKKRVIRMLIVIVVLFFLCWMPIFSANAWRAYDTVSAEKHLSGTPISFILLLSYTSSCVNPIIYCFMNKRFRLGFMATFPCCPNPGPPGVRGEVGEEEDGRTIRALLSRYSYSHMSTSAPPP
The test can be described thus: Inhibition of ligand binding to Cholecystokinin type A receptor from rat pancreatic tissue.
Take `CCCN1C(=O)[C@H](NC(=O)Nc2cccc(C)c2)N=C([C@H]2CCCCN2)c2ccccc21`: the half-inhibitory concentration (IC50) worked out at 3 µM.
Same read-out and setting: the figure for `CCCN1C(=O)[C@H](NC(=O)Nc2cccc(C)c2)N=C([C@H]2CCCCN2C)c2ccccc21` is 2.09 µM.
Turning to `CCCN1C(=O)[C@H](NC(=O)Nc2cccc(C)c2)N=C([C@@H]2CCCCN2)c2ccccc21`, the 50% inhibitory concentration (IC50) was 3 µM.
Same read-out and setting: the figure for `CCCN1C(=O)[C@H](NC(=O)Nc2cccc(C)c2)N=C([C@H]2CC(C)(C)CCN2)c2ccccc21` is 3.09 µM; for `CCN(CC)C(=O)CN1C(=O)[C@H](NC(=O)Nc2cccc(C)c2)N=C(c2cccc[n+]2C)c2ccccc21` it is 1.75 µM.
On to `Cc1cccc(NC(=O)N[C@@H]2N=C([C@H]3CCC(C)(C)CCN3)c3ccccc3N(C)C2=O)c1`, for which the IC50 was found to be 1.39 µM.
The compound `CCCN1C(=O)[C@H](NC(=O)Nc2ccc3c(c2)CCC3)N=C([C@H]2CC(C)(C)CCN2)c2ccccc21` yielded a half-inhibitory concentration (IC50) of 4.02 µM.
Consider `CN1C(=O)[C@H](NC(=O)Nc2ccc3c(c2)CCC3)N=C([C@H]2CCC(C)(C)CCN2)c2ccccc21`, for which the IC50 stood at 6.49 µM.
In turn, `CCCN1C(=O)[C@H](NC(=O)Nc2cccc(C)c2)N=C([C@H]2CCC(C)(C)CCN2C)c2ccccc21` came in with an IC50 of 3.54 µM.
Compound `CCCN1C(=O)[C@H](NC(=O)Nc2cccc(C)c2)N=C([C@H]2CCC(C)(C)CCN2)c2ccccc21` came in with a half-inhibitory concentration (IC50) of 1.51 µM.
